This passage reports neurite process, IC50 and Kd results from publication PMC9953660, “Using ΔK280 TauRD Folding Reporter Cells to Screen TRKB Agonists as Alzheimer’s Disease Treatment Strategy” (Biomolecules, 2023).

Series [1] deals with TRKB knockdown ΔK280 TauRD-DsRed SH-SY5Y cells. The series can be described thus: TRKB RNA interference: TRKB protein level and neurite outgrowth. The class given is cell-based, human. The settings on record: 10 μM. The method, then:
ΔK280 TauRD-DsRed SH-SY5Y cells were plated in the presence of 10 μM retinoid acid (RA; Sigma-Aldrich) to promote neuronal differentiation. The next day, cells were added with congo red or ZN/VB compounds (2–10 μM) for 8 h pretreatment, followed by inducing ΔK280 TauRD-DsRed expression with doxycycline (2 μg/mL). On day 8, cell nuclei were stained with Hoechst 33342 (0.1 μg/mL; Thermo Scientific), and cell images acquired using ImageXpress Micro Confocal High-Content Imaging System (Molecular Devices, San Jose, CA, USA) with DAPI (4′,6-diamidino-2-phenylindole, for nuclei) and TRITC (tetramethylrhodamine, for DsRed) fluorescence filter sets. To detect ROS changes, 10 μM compound-treated cells were stained with Hoechst 33342 and 2′,7′-dichlorodihydrofluorescein diacetate (H2DCFDA, 10 μM) fluorescein (Invitrogen, Carlsbad, CA, USA), and cell images captured using DAPI and FITC (fluorescein isothiocyanate, for DCF) filters. […] The nuclei and neurite images were acquired with DAPI and TRITC fluorescence filters, respectively. […]
Cells were collected and protein extracted as described. […] Protein signals were detected with chemiluminescent substrate (Millipore) using the ImageQuant™ LAS 4000 imager and analysis software (GE Healthcare, UK). […]

A short description of the next series: MTT cell viability assay. Format: cell-based. The settings on record: human. On the procedure: Human neuroblastoma SH-SY5Y cells with inducible ΔK280 TauRD-DsRed expression were maintained in DMEM/F-12 supplemented with fetal bovine serum (FBS, 10%) (Thermo Scientific, Waltham, MA, USA), penicillin/streptomycin (100 U/mL), selection antibiotics hygromycin (100 μg/mL) and blasticidin (5 μg/mL) (InvivoGen, San Diego, CA, USA), and 1.5 g/l sodium bicarbonate. Cells were cultured at 37 °C in a 5% CO2 atmosphere. The cell viability of ZN and VB compounds (concentration range: 0.1–100 μM) was evaluated by a 3-(4,5-dimethylthiazol-2-yl)-2,5-diphenyltetrazolium bromide (MTT; Sigma-Aldrich) colorimetric assay. The absorbance at 570 nm was recorded by a Multiskan™ GO Microplate Spectrophotometer (Thermo Scientific).

For series [2], the target named is T1, TRKB extracellular domain (TRKB-ECD) (Homo sapiens, UniProt Q16620).
T1 construct: TRKB-ECD (marked in red, C^32-E^429, XP_016870240); His (C); made in house; host or cells: Pichia pastoris
The series can be described thus: Tryptophan fluorescence quenching assay. Conditions: Pichia pastoris-expressed TRKB-ECD, 0–1000 nM, excitation 295 nm, emission 330 nm, room temperature; read-out: KD (TRKB-ECD binding affinity). The method, then:
The interaction between the N-terminal extracellular domain of TRKB (TRKB-ECD) and 7,8-DHF (as positive control; [35]), ZN-015, VB-030 or VB-037 was evaluated with tryptophan fluorescence titration. TRKB-ECD-His protein was expressed in the Pichia expression system (Invitrogen) and purified as stated. Intrinsic tryptophan fluorescence spectra with titration of a different concentration of compounds (0–1000 nM) were recorded by fluorescence spectrophotometer F-7000 (Hitachi, Tokyo, Japan), with excitation wavelength 295 nm and emission wavelength in the range of 300–400 nm. The calculation of dissociation constant (KD) between the 7,8-DHF or ZN/VB compound and TRKB was described in a previous report.

Series [3] can be described thus: Cell number / cell survival in induced ΔK280 TauRD-DsRed SH-SY5Y cells (high-content). Conditions: human; induced SH-SY5Y cells expressing ΔK280 TauRD-DsRed for 6 days, 2–10 μM tested; read-out: IC50 cytotoxicity based on cell number. The class given is cell-based, human. On the procedure: ΔK280 TauRD-DsRed SH-SY5Y cells were plated in the presence of 10 μM retinoid acid (RA; Sigma-Aldrich) to promote neuronal differentiation. The next day, cells were added with congo red or ZN/VB compounds (2–10 μM) for 8 h pretreatment, followed by inducing ΔK280 TauRD-DsRed expression with doxycycline (2 μg/mL). On day 8, cell nuclei were stained with Hoechst 33342 (0.1 μg/mL; Thermo Scientific), and cell images acquired using ImageXpress Micro Confocal High-Content Imaging System (Molecular Devices, San Jose, CA, USA) with DAPI (4′,6-diamidino-2-phenylindole, for nuclei) and TRITC (tetramethylrhodamine, for DsRed) fluorescence filter sets. To detect ROS changes, 10 μM compound-treated cells were stained with Hoechst 33342 and 2′,7′-dichlorodihydrofluorescein diacetate (H2DCFDA, 10 μM) fluorescein (Invitrogen, Carlsbad, CA, USA), and cell images captured using DAPI and FITC (fluorescein isothiocyanate, for DCF) filters. For assessing differential neurite outgrowth, 10 μM compound-treated cells were fixed (paraformaldehyde, 4%), permeabilized (Triton X-100, 0.3%), and stained with class III β-tubulin (TUBB3, 1:1000) primary antibody (#802001, BioLegend, San Diego, CA, USA), followed by donkey anti-rabbit Alexa Fluor® 555 secondary antibody (1:1000; #A-31572, Invitrogen) and DAPI (0.1 μg/mL; Sigma-Aldrich) stains. The nuclei and neurite images were acquired with DAPI and TRITC fluorescence filters, respectively. All analyses of images were performed using MetaXpress software (Molecular Device).

T1 sequence (Q16620 32-429): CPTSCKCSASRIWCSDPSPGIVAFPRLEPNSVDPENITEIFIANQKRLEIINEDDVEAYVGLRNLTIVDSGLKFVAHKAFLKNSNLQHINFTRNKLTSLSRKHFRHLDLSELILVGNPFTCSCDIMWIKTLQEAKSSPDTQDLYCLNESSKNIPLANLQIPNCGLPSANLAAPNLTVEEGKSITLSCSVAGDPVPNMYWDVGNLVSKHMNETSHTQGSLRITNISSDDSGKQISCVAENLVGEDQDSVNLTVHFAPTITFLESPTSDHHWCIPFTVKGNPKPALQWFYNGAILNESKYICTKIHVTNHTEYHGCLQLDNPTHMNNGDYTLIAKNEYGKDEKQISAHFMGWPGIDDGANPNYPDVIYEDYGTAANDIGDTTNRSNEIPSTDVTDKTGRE

For `O=C(/C=C/c1ccccc1O)c1c(O)c2ccccc2oc1=O` [ZN-015, (E)-4-hydroxy-3-(3-(2-hydroxyphenyl)acryloyl)-2H-chromen-2-one], the neurite process in series [1] (TRKB knockdown) is 2.17; in series [1] (scrambled shRNA) it was 2.35. Also, the IC50 at 24 h in the series “MTT cell viability assay” was 77 µM. Also, the Kd in series [2] turned out to be 12.2 ± 9.4 nM. The IC50 at 6 days in series [3] was 16 µM.
